# Test results: ChEMBL document CHEMBL4831541, “Antibiotic Conjugates with an Artificial MECAM-Based Siderophore Are Potent Agents against Gram-Positive and Gram-Negative Bacterial Pathogens” (2021)
# Calls of active or inactive are those of the source. No cut-off for these calls is given here.
# How the values were obtained:
# Escherichia coli [1] = experiment: Antibacterial activity against Escherichia coli BW25113 assessed as growth inhibition by measuring minimal concentration at OD600 by visual inspection with iron-limited media incubated for 24 hrs; type: functional
# Staphylococcus aureus = experiment: Antibacterial activity against Staphylococcus aureus DSM11822 assessed as growth inhibition by measuring minimal concentration at OD600 by visual inspection with iron-limited media incubated for 24 hrs; type: functional
# Acinetobacter baumannii = experiment: Antibacterial activity against Acinetobacter baumannii DSM30007 assessed as growth inhibition by measuring minimal concentration at OD600 by visual inspection with iron-limited media incubated for 24 hrs; type: functional
# Enterococcus faecium = experiment: Antibacterial activity against Enterococcus faecium DSM20477 assessed as growth inhibition by measuring minimal concentration at OD600 by visual inspection with iron-limited media incubated for 24 hrs; type: functional
# Klebsiella pneumoniae = experiment: Antibacterial activity against Klebsiella pneumoniae DSM11678 assessed as growth inhibition by measuring minimal concentration at OD600 by visual inspection with iron-limited media incubated for 24 hrs; type: functional, organism-based
# Pseudomonas aeruginosa = experiment: Antibacterial activity against Pseudomonas aeruginosa DSM24068 assessed as growth inhibition by measuring minimal concentration at OD600 by visual inspection with iron-limited media incubated for 24 hrs; type: functional, organism-based
# Escherichia coli [2] = experiment: Recovery of growth in Escherichia coli BW25113 delta entA assessed as reversal of growth at 10 uM in presence of 0.1 uM iron(III) chloride hexahydrate by growth recovery assay; type: functional, organism-based
# Escherichia coli [3] = experiment: Recovery of growth in Escherichia coli BW25113 delta entA delta fepA double knock out assessed as reversal of growth at 10 uM in presence of 0.1 uM iron(III) chloride hexahydrate by growth recovery assay; type: functional, organism-based
# Escherichia coli [4] = experiment: Recovery of growth in Escherichia coli BW25113 delta entA delta fepA double knock out assessed as reversal of growth at 10 uM in presence of 0.1 uM iron(III) chloride hexahydrate measured after reintroduction of plasmid expressing full length FepA by growth recovery assay; type: functional, organism-based
# Escherichia coli [5] = experiment: Antibacterial activity against wild type Escherichia coli BW25113 assessed as growth inhibition by measuring minimal concentration at OD600 by visual inspection with iron-limited media incubated for 24 hrs; type: functional
# Escherichia coli [6] = experiment: Antibacterial activity against Escherichia coli delta fepA assessed as growth inhibition by measuring minimal concentration at OD600 by visual inspection with iron-limited media incubated for 24 hrs; type: functional
# Escherichia coli [7] = experiment: Antibacterial activity against Escherichia coli delta cirA assessed as growth inhibition by measuring minimal concentration at OD600 by visual inspection with iron-limited media incubated for 24 hrs; type: functional
# Escherichia coli [8] = experiment: Antibacterial activity against Escherichia coli delta fiu assessed as growth inhibition by measuring minimal concentration at OD600 by visual inspection with iron-limited media incubated for 24 hrs; type: functional
# Escherichia coli [9] = experiment: Antibacterial activity against Escherichia coli delta fepA delta cirA assessed as growth inhibition by measuring minimal concentration at OD600 by visual inspection with iron-limited media incubated for 24 hrs; type: functional
# Escherichia coli [10] = experiment: Antibacterial activity against Escherichia coli delta […] delta fiu assessed as growth inhibition by measuring minimal concentration at OD600 by visual inspection with iron-limited media incubated for 24 hrs; type: functional
# Escherichia coli [11] = experiment: Antibacterial activity against Escherichia coli delta cirA delta fiu assessed as growth inhibition by measuring minimal concentration at OD600 by visual inspection with iron-limited media incubated for 24 hrs; type: functional
# Escherichia coli [12] = experiment: Antibacterial activity against Escherichia coli delta fepA delta cirA delta fiu assessed as growth inhibition by measuring minimal concentration at OD600 by visual inspection with iron-limited media incubated for 24 hrs; type: functional
# Escherichia coli [13] = experiment: Antibacterial activity against Escherichia coli delta tonB assessed as growth inhibition by measuring minimal concentration at OD600 by visual inspection with iron-limited media incubated for 24 hrs; type: functional
# Escherichia coli [14] = experiment: Antibacterial activity against Escherichia coli delta exbB assessed as growth inhibition by measuring minimal concentration at OD600 by visual inspection with iron-limited media incubated for 24 hrs; type: functional
# Escherichia coli [15] = experiment: Antibacterial activity against Escherichia coli delta fepB assessed as growth inhibition by measuring minimal concentration at OD600 by visual inspection with iron-limited media incubated for 24 hrs; type: functional
# Escherichia coli [16] = experiment: Antibacterial activity against Escherichia coli delta fepD assessed as growth inhibition by measuring minimal concentration at OD600 by visual inspection with iron-limited media incubated for 24 hrs; type: functional
# [17] = Metal chelating activity assessed as Fe3+-compound complex formation measured after 17 hrs by chrome azurol S dye based colorimetric assay
# Escherichia coli [18] = experiment: Drug uptake in Escherichia coli BW25113 delta entA assessed in membrane fraction pre-treated at 10 uM in presence of 0.1 uM iron(III) chloride hexahydrate by mass spectrometry based cell fractionation assay; type: functional, organism-based
# Escherichia coli [19] = experiment: Drug uptake in Escherichia coli BW25113 delta entA assessed in peri-plasmic fraction pre-treated at 10 uM in presence of 0.1 uM iron(III) chloride hexahydrate by mass spectrometry based cell fractionation assay; type: functional, organism-based
# Escherichia coli [20] = experiment: Drug uptake in Escherichia coli BW25113 delta entA assessed in cytoplasmic fraction pre-treated at 10 uM in presence of 0.1 uM iron(III) chloride hexahydrate by mass spectrometry based cell fractionation assay; type: functional, organism-based
SMILES,MIC (Escherichia coli [1]),MIC (Staphylococcus aureus),MIC (Acinetobacter baumannii),MIC (Enterococcus faecium),Activity (Klebsiella pneumoniae),Activity (Pseudomonas aeruginosa),Activity (Escherichia coli [2]),other results
CC1(C)S[C@@H]2[C@H](NC(=O)[C@H](N)c3ccc(O)cc3)C(=O)N2[C@H]1C(=O)O [AMOXICILLIN],18 µM,> 175 µM,> 175 µM,1.3 µM,–,–,–,–
CCCCCCCCCC(=O)N[C@@H](Cc1c[nH]c2ccccc12)C(=O)N[C@H](CC(N)=O)C(=O)N[C@@H](CC(=O)O)C(=O)N[C@@H]1C(=O)NCC(=O)N[C@@H](CCCN)C(=O)N[C@@H](CC(=O)O)C(=O)N[C@H](C)C(=O)N[C@@H](CC(=O)O)C(=O)NCC(=O)N[C@H](CO)C(=O)N[C@@H]([C@H](C)CC(=O)O)C(=O)N[C@@H](CC(=O)c2ccccc2N)C(=O)O[C@@H]1C,> 64 µM,0.36 µM,> 39 µM,0.62 µM,–,–,–,–
CCCCCCCCCC(=O)N[C@@H](Cc1c[nH]c2ccccc12)C(=O)N[C@H](CC(N)=O)C(=O)N[C@@H](CC(=O)O)C(=O)N[C@@H]1C(=O)NCC(=O)N[C@@H](CCCNC(=O)CCCCCn2cc(CCCC(=O)Nc3c(CNC(=O)c4cccc(O)c4O)cc(CNC(=O)c4cccc(O)c4O)cc3CNC(=O)c3cccc(O)c3O)nn2)C(=O)N[C@@H](CC(=O)O)C(=O)N[C@H](C)C(=O)N[C@@H](CC(=O)O)C(=O)NCC(=O)N[C@H](CO)C(=O)N[C@@H]([C@@H](C)CC(=O)O)C(=O)N[C@@H](CC(=O)c2ccccc2N)C(=O)O[C@@H]1C,> 64 µM,8.7 µM,4.4 µM,13 µM,inactive,inactive,–,–
CC(=O)Oc1cccc(C(=O)NCCc2cc(CCNC(=O)c3cccc(OC(C)=O)c3OC(C)=O)c([N+](=O)[O-])c(CCNC(=O)c3cccc(OC(C)=O)c3OC(C)=O)c2)c1OC(C)=O,–,–,–,–,–,–,Active,–
CC(=O)Oc1cccc(C(=O)NCc2cc(CNC(=O)c3cccc(OC(C)=O)c3OC(C)=O)c([N+](=O)[O-])c(CNC(=O)c3cccc(OC(C)=O)c3OC(C)=O)c2)c1OC(C)=O,–,–,–,–,–,–,Active,Activity (Escherichia coli [3]): inactive; Activity (Escherichia coli [4]): Active
CC(C)(O/N=C(\C(=O)N[C@@H]1C(=O)N2C(C(=O)[O-])=C(C[N+]3(CCNC(=O)c4ccc(O)c(O)c4Cl)CCCC3)CS[C@H]12)c1csc(N)n1)C(=O)O [CEFIDEROCOL],0.042 µM,> 85 µM,0.053 µM,> 85 µM,–,–,–,MIC (Escherichia coli [5]): 33 µM; MIC (Escherichia coli [6]): 0.17 µM; MIC (Escherichia coli [7]): 0.66 µM; MIC (Escherichia coli [8]): 0.66 µM; MIC (Escherichia coli [9]): 0.17 µM; MIC (Escherichia coli [10]): 0.66 µM; MIC (Escherichia coli [11]): 21 µM; MIC (Escherichia coli [12]): > 21 µM; MIC (Escherichia coli [13]): > 21 µM; MIC (Escherichia coli [14]): 5.3 µM; MIC (Escherichia coli [15]): 0.083 µM; MIC (Escherichia coli [16]): 0.083 µM
CC1(C)S[C@@H]2[C@H](NC(=O)[C@H](NC(=O)CCn3cc(CCCC(=O)Nc4c(CNC(=O)c5cccc(O)c5O)cc(CNC(=O)c5cccc(O)c5O)cc4CNC(=O)c4cccc(O)c4O)nn3)c3ccccc3)C(=O)N2[C@H]1C(=O)O,0.89 µM,5.3 µM,> 57 µM,> 57 µM,inactive,inactive,–,–
CC(=O)Oc1cccc(C(=O)NCc2cc(CNC(=O)c3cccc(OC(C)=O)c3OC(C)=O)cc(CNC(=O)c3cccc(OC(C)=O)c3OC(C)=O)c2)c1OC(C)=O,–,–,–,–,–,–,Active,–
CC1(C)S[C@@H]2[C@H](NC(=O)[C@H](NC(=O)CCn3cc(CCCC(=O)Nc4c(CNC(=O)c5cccc(O)c5O)cc(CNC(=O)c5cccc(O)c5O)cc4CNC(=O)c4cccc(O)c4O)nn3)c3ccc(O)cc3)C(=O)N2[C@H]1C(=O)O,0.87 µM,> 56 µM,56 µM,> 56 µM,inactive,inactive,–,–
CC(=O)Oc1cccc(C(=O)NCc2cc(CNC(=O)c3cccc(OC(C)=O)c3OC(C)=O)c(NC(=O)CCCc3cn(CCC(=O)N[C@@H](C(=O)N[C@@H]4C(=O)N5[C@@H]4SC(C)(C)[C@@H]5C(=O)O)c4ccc(O)cc4)nn3)c(CNC(=O)c3cccc(OC(C)=O)c3OC(C)=O)c2)c1OC(C)=O,1.4 µM,> 46 µM,46 µM,> 46 µM,inactive,inactive,–,–
O=C(NCc1cc(CNC(=O)c2cccc(O)c2O)c([N+](=O)[O-])c(CNC(=O)c2cccc(O)c2O)c1)c1cccc(O)c1O,–,–,–,–,–,–,Active,Activity [17]: Active; Drug uptake (Escherichia coli [18]): Active; Drug uptake (Escherichia coli [19]): Active; Drug uptake (Escherichia coli [20]): inactive
CC(=O)Oc1cccc(C(=O)NCc2cc(CNC(=O)c3cccc(OC(C)=O)c3OC(C)=O)c(CNC(=O)c3cccc(OC(C)=O)c3OC(C)=O)c([N+](=O)[O-])c2)c1OC(C)=O,–,–,–,–,–,–,Active,–
CC1(C)S[C@@H]2[C@H](NC(=O)[C@H](N)c3ccccc3)C(=O)N2[C@H]1C(=O)O [AMPICILLIN],19 µM,> 183 µM,> 183 µM,2.7 µM,–,–,–,MIC (Escherichia coli [5]): 46 µM; MIC (Escherichia coli [6]): 46 µM; MIC (Escherichia coli [7]): 46 µM; MIC (Escherichia coli [8]): 46 µM; MIC (Escherichia coli [9]): 46 µM; MIC (Escherichia coli [10]): 46 µM; MIC (Escherichia coli [11]): 46 µM; MIC (Escherichia coli [12]): 46 µM; MIC (Escherichia coli [13]): 46 µM; MIC (Escherichia coli [14]): 46 µM; MIC (Escherichia coli [15]): 46 µM; MIC (Escherichia coli [16]): 46 µM
CC(=O)Oc1cccc(C(=O)NCc2cc(CNC(=O)c3cccc(OC(C)=O)c3OC(C)=O)c(NC(=O)CCOCCOCCOCCOCc3cn(CCC(=O)N[C@@H](C(=O)N[C@@H]4C(=O)N5[C@@H]4SC(C)(C)[C@@H]5C(=O)O)c4ccccc4)nn3)c(CNC(=O)c3cccc(OC(C)=O)c3OC(C)=O)c2)c1OC(C)=O,0.81 µM,> 64 µM,64 µM,> 64 µM,inactive,inactive,–,–
O=C(NCc1cc(CNC(=O)c2cccc(O)c2O)cc(CNC(=O)c2cccc(O)c2O)c1)c1cccc(O)c1O,–,–,–,–,–,–,Active,–
